The record followed here is US9937192B2, “Combination therapy to treat mycobacterium diseases” (priority 2012, dated 2018).

Data set [1] in a line: Oral Range Finding Toxicity and Toxicokinetic Study in Male Cynomolgus Monkeys. The data set is classed as in vivo, Cynomolgus monkeys (Macaca Fascicularis). Here is the method: An Oral Range Finding Toxicity and Toxicokinetic Study in Male Cynomolgus Monkeys
The first day of dosing was designated as Day 1 of the study. The actual volume administered to each animal was calculated and adjusted based on the most recent body weight of each animal.
Cage-side clinical signs (ill health, behavioral changes etc.) were recorded at least once daily during the study.
Body weights were recorded for all animals prior to group assignment and on Days 1 (prior to dosing), 3 and 7 as well as terminally prior to necropsy (fasted).
Electrocardiograms (bipolar limb leads I, II and III, and augmented unipolar leads aVR, aVL and aVF) were obtained for all monkeys once during the pre-treatment period and again on Day 7 (post-dosing).
The tracings were assessed for gross changes indicative of cardiac electrical dysfunction. The potential presence of abnormalities involving heart rate (lead II), sinus and atrioventricular rhythm or conductivity were determined. Heart rate, PR interval, QRS duration, QT and QTc intervals values were measured.
A series of 7 blood samples (approximately 0.5 mL each) were collected from each monkey on Days 1 and 7 at the following time points: predose, 30 minutes and 2, 3, 6, 12 and 24 hours post-dose. For this purpose, each monkey was bled by venipuncture and the samples were collected into tubes containing the anticoagulant, K2EDTA. Tubes were placed on wet ice until ready for processing.
Laboratory investigations (hematology, coagulation, clinical chemistry and urinalysis) were performed on all animals prior to start of treatment and prior to termination on Day 8.
A necropsy with tissue collection was conducted on all animals terminated during the study. The necropsy included examination of: • carcass and muscular/skeletal system; • all external surfaces and orifices; • cranial cavity and external surface of the brain; • neck with associated organs and tissues; and • thoracic, abdominal, and pelvic cavities with their associated organs and tissues. All abnormalities were described and recorded.
For all animals, all tissues indicated above were embedded in paraffin, sectioned and stained with hematoxylin and eosin and examined by light microscopy.

The next data set can be described thus: Aqueous Solubility Study. The format is physicochemical. As to conditions: water, aqueous buffer, thermodynamic from solid, crystalline solid form, pH >3.0, 96 hours at room temperature. Here is the method:
The aqueous solubilities of compound 23 and compound W were determined according to the following procedure.
Aqueous samples of each compound were prepared as follows. Compounds were weighed (20-30 mg compound) in 4 ml clear vials prior to adding water (0.5 mL) and stirring by magnetic stirrer. 1.0N HCl was added to the suspension to adjust the pH to the desired range. After stirring for 96 hours at room temperature, the suspension was filtered through a 0.22 micron filter (Millipore, Ultrafree centrifugal filters, Durapore PVDF 0.22 μm, Cat# UFC30GVNB). The filtrate was collected and the pH measured with a pH meter.
Standard solutions of each compound were prepared according to the following procedure. […]
Aliquots of each sample and each standard solution were analyzed by HPLC analysis (Agilent 1100, injection volume 10 μL, wavelength 271 nm, column XTerra® Phenyl 5 μm, 4.6×50 mm, Part No. 186001144, mobile phase: A: 0.1% TFA in water 0.1% TFA in AcN). […] Standard curves were obtained by plotting the average of the peak area from the HPLC versus the concentrations of the standard solutions (with appropriate corrections of the weights of the standards based on total water content of the solid as determined by elemental analysis). The concentration of each sample was calculated from the peak area of the aqueous sample from the HPLC results and the slope and intercept of the standard curves. […]

The nature of data set [2]: Rat IV Study (pharmacokinetics). As to conditions: male Sprague Dawley rats, plasma analyte = label.
[3] abbreviates: doses up to 200 mg/kg/day for 7 days.
The mark [4] stands for this setting: Compound W dosed IV bolus 1 mg/kg in D5W.
Setting [5] is: Compound W dosed IV bolus 5 mg/kg in D5W.

Some results are limits rather than exact numbers.

In general, solubility refers to the concentration that dissolves in the medium under given conditions. Turning to `CCNC(=O)Nc1nc2cc(-c3cnc(C(C)(C)O)nc3)c(F)c([C@H]3CCCO3)c2[nH]1` [Compound 23, 1-ethyl-3-[6-fluoro-5-[2-(1-hydroxy-1-methyl-ethyl)pyrimidin-5-yl]-7-[(2R)-tetrahydrofuran-2-yl]-1H-benzimidazol-2-yl]urea], in data set [1] (setting [3]), the “clinical signs, body weights, electrocardiography, clinical pathology, organ weights” value was “no clinical signs, or changes in body weights, electrocardiography parameters, clinical pathology parameters, or organ weights” and the “macroscopic or microscopic findings” value was “no macroscopic or microscopic findings”. For the same compound, the “no observed effect level (NOEL)” value in data set [1] (oral gavage once per day for 7 days) was found to be 200 mg/kg/day. Moreover, the “exposures for different dosage levels” value in data set [1] (toxicokinetics) was “dose related”. The compound further had a solubility at 96 h in the data set “Aqueous Solubility Study” of less than 1 µg/mL. In data set [2] (setting [4]), this compound returned an AUCextrap of 0.31 µg·h/mL, a Cl_obs of 54.9 mL/min/kg and a Vss_obs of 3.8 L/kg. In data set [2] (setting [5]), this compound registered an AUCextrap of 3.06 µg·h/mL, a Cl_obs of 27.3 mL/min/kg and a Vss_obs of 4.08 L/kg.
